Results: US20260000601A1, “Anti-Carbonylation Composition And Method Of Protecting Keratin Materials From Carbonylation Stimuli By Using Compositions Including Polylysines” (ELC Management LLC, priority 2022, published 2026)

System: Bovine Serum Albumin (BSA)
Assay: In vitro anti-carbonylation efficacy test (acrolein-induced carbonylation of BSA, Protein Carbonyl Assay Kit)
Settings: BSA + acrolein in PBS, 37° C. overnight; for % inhibition of carbonylation (average): blank = 0%; for Percentage of protein carbonylation level (average): blank = 100%
[1] = agent working concentration 0.005%
[2] = agent working concentration 0.05%

Method: This assay provides an in vitro method to determine how an anti-carbonylation agent/composition affects the extent of protein carbonylation. With deionized water, the anti-carbonylation agent/composition to be tested was made into a 1% solution, Bovine Serum Albumin (BSA) was made into a 10 mg/mL solution, and Acrolein was made into a 10 mM solution. Then, in a 1.5 mL centrifuge tube, according to the content in Table 1, BSA (10 mg/mL), anti-carbonylation agent/composition (1%), Acrolein (10 mM) and Phosphate buffer solution (PBS) were added to the centrifuge tube. The sample containing only BSA and PBS served as a baseline, and the sample containing BSA, Acrolein and PBS served as a blank. The final liquid volume in each centrifuge tube was 1.0 mL. Each group contained three replicate samples, and all samples were placed at 37° C. overnight.
The protein carbonyl content in the above samples was detected by using the Protein Carbonyl Assay Kit of Nanjing Jiancheng Bioengineering Institute. The detection methods are as follows: take 0.1 mL of sample into the assay tube, then add 0.4 mL of reagent 3 in the kit, vortex to mix for 1 min, and react at 37° C. for 30 min in the dark. Add 0.5 mL of reagent 5 in the kit, vortex and mix for 1 min, centrifuge at 12,000 r/min for 10 min at 4° C., discard the supernatant, and leave the pellet. Add 1.0 mL of anhydrous ethanol and ethyl acetate (1:1) mixed solution, vortex to mix for 1 min, centrifuge at 12,000 r/min for 10 min at 4° C., discard the supernatant, leave the precipitate, and repeat the above steps four times. Add 1.25 mL of reagent VI in the kit, mix well, place it in 37° C. for 15 min, vortex to mix, dissolve all the precipitates, and centrifuge at 12,000 r/min for 15 minutes. Take the supernatant in a quartz cuvette with a light diameter of 0.5 cm, adjust the zero with reagent six, and measure the absorbance value of each tube at 370 nm (ultraviolet). According to the formula, we can get the protein carbonyl content.
The protein content of the samples was determined using Thermos's Micro BCA™ Protein Assay Kit. First, prepare Diluted Albumin (BSA) Standards (Working Range=20-750 μg/mL). Mix BCA Reagent A with Reagent B (Reagent A:Reagent B=50:1) to prepare working solution. Take 25 μL each of the protein standard at different dilution concentration and the protein sample, add them to the microplate. Add 200 μL of working solution to each well and mix well by shaking on a shaker for 30 s. The microplate was sealed and incubated at 37° C. for 30 min. Cool the microplate to room temperature and measure the absorbance of the sample at a wavelength of 562 nm. The corrected absorbance value is the absorbance value of the blank sample subtracted from the readings of each standard and sample. The protein concentration was read against a standard curve prepared with known amounts of BSA. Referring to the standard curve, according to the corrected absorbance value of each protein sample, read the protein concentration of each sample within the linear range of the standard curve. Calculate the amount of protein in the original sample based on the sample volume and dilution.
The anti-carbonylation capability of each anti-carbonylation agents/composition can be obtained by dividing the carbonylation degree of the sample by the BSA protein content.

Row | Compound | % inhibition of carbonylation (average) [1] [%] | Percentage of protein carbonylation level (average) [1] [%] | % inhibition of carbonylation (average) [2] [%] | Percentage of protein carbonylation level (average) [2] [%]
1 | NCCCC[C@H](N)C(=O)O [L-Lysine] | 21 | 79 | 40 | 60
2 | Dendritic PL: dendritic polylysine, DendriClear from Lucas Meyer, Mw = 6171 | – | 43 | – | 19
